This is an account of results in the NIST ThermoML archive (doi:10.1021/je2001446).

Structures are written as SMILES. Values joined by “and” are separate entries in the source; they are usually repeats but may differ in a detail not shown here. Identical values can stand only once. ± gives the expanded uncertainty stated by the source.

Data set [1] is described as follows: Molar enthalpy of transition or fusion. Conditions: Crystal.
For data set [2] the following is noted: Crystal.

Turning to `CCCC[n+]1cccc(C)c1.[Cl-]` [1-butyl-3-methylpyridinium chloride], the “Molar enthalpy of transition or fusion” value in data set [1] worked out at 6.57 ± 0.765 kcal/mol. Besides, the Normal melting temperature in data set [2] is 111.4 ± 0.8 °C and 109.8 ± 2.5 °C.
On to `CCCCCCCCCC[n+]1cccc(C)c1.[Cl-]` [1-decyl-3-methylpyridinium chloride], for which the “Molar enthalpy of transition or fusion” value in data set [1] was 3.44 ± 0.741 kcal/mol. For the same compound, the Normal melting temperature in data set [2] is 79.4 ± 0.8 °C and 75.6 ± 2.5 °C.
With `CCCCCCCCCCCC[n+]1cccc(C)c1.[Cl-]` [1-dodecyl-3-methylpyridinium chloride], the “Molar enthalpy of transition or fusion” value in data set [1] is 8.87 ± 0.789 kcal/mol. Further, the Normal melting temperature in data set [2] is 87.7 ± 0.8 °C and 86.8 ± 2.5 °C.
`CCCCCCCCCCCCCCCC[n+]1cccc(C)c1.[Cl-]` [1-hexadecyl-3-methylpyridinium chloride]: in data set [1], the “Molar enthalpy of transition or fusion” value was 9.63 ± 0.813 kcal/mol. Also, the Normal melting temperature in data set [2] was 110 ± 0.8 °C and 110.0 ± 2.5 °C.
Take `CCCCCC[n+]1cccc(C)c1.[Cl-]` [1-hexyl-3-methylpyridinium chloride]: the “Molar enthalpy of transition or fusion” value in data set [1] is 4.71 ± 0.741 kcal/mol. For the same compound, in data set [2], the Normal melting temperature is 82.0 ± 0.8 °C and 80 ± 2.5 °C.
Take `CCCCCCCC[n+]1cccc(C)c1.[Cl-]` [1-octyl-3-methylpyridinium chloride]: the “Molar enthalpy of transition or fusion” value in data set [1] is 3.56 ± 0.741 kcal/mol. The Normal melting temperature in data set [2] is 80.1 ± 0.8 °C and 79.2 ± 2.5 °C.
Turning to `CCCCCCCCCCCCCC[n+]1cccc(C)c1.[Cl-]` [1-tetradecyl-3-methylpyridinium chloride], the “Molar enthalpy of transition or fusion” value in data set [1] worked out at 10.2 ± 0.813 kcal/mol. In addition, the Normal melting temperature in data set [2] was 93.7 ± 0.8 °C and 94.6 ± 2.5 °C.
Consider `CCCCCCCCCCCCCCCCCC[n+]1cccc(C)c1.[Cl-]` [3-methyl-1-octadecylpyridinium chloride], for which the “Molar enthalpy of transition or fusion” value in data set [1] stood at 6.72 ± 0.765 kcal/mol. Also, in data set [2], the Normal melting temperature was 112.2 ± 0.8 °C and 113 ± 2.5 °C.
